Columns and labels:
[1] = target: Ephrin type-A receptor 2 (Homo sapiens) (UniProt P29317); assay: Selectivity interaction (KinomeScan (DiscoverX)) EUB0001049a EPHA2; details: at 1 µM
[2] = target: Glucocorticoid receptor (Homo sapiens, UniProt P04150); assay: Selectivity interaction (Glucocorticoid receptor binding assay, human recombinant ) EUB0000877a NR3C1
[3] = target: Tyrosine-protein kinase Fyn (Homo sapiens) (UniProt P06241); assay: Selectivity interaction (ProQinase) EUB0000171b FYN
[4] = target: T1, Dual specificity mitogen-activated protein kinase kinase 6 (Homo sapiens) (UniProt P52564); assay: Selectivity interaction (ProQinase) EUB0000171b MAP2K6
T1 sequence (whole entry): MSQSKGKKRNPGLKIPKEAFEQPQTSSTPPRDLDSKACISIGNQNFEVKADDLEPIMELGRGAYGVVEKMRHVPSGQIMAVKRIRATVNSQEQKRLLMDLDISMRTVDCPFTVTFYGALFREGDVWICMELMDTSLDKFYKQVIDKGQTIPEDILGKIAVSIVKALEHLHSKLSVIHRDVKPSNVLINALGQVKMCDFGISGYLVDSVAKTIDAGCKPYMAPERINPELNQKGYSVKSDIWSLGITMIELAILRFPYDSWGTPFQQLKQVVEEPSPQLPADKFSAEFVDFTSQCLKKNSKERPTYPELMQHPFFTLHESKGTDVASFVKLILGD

[5] = target: T2, Serine/threonine-protein kinase Chk1 (Homo sapiens) (UniProt O14757); assay: Selectivity interaction (Kinase panel (literature)) EUB0001199aCl CHEK1; details: at 1 µM
T2 sequence (whole entry): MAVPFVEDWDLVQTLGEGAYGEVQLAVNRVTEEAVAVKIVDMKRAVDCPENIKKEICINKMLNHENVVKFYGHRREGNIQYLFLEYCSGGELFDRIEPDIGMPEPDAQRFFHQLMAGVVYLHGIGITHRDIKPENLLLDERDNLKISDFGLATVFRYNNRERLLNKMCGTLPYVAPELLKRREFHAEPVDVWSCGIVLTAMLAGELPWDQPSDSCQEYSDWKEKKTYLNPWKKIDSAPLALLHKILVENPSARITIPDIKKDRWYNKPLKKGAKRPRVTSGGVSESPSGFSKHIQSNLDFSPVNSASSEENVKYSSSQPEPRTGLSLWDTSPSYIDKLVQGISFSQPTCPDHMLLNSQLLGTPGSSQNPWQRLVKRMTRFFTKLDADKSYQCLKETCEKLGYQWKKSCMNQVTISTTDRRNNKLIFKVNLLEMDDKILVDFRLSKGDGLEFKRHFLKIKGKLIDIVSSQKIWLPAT

[6] = target: T3, Mitogen-activated protein kinase kinase kinase 7 (Homo sapiens) (UniProt O43318); assay: Selectivity interaction (KinomeScan (DiscoverX)) EUB0000618a MAP3K7; details: at 10 µM
T3 sequence (whole entry): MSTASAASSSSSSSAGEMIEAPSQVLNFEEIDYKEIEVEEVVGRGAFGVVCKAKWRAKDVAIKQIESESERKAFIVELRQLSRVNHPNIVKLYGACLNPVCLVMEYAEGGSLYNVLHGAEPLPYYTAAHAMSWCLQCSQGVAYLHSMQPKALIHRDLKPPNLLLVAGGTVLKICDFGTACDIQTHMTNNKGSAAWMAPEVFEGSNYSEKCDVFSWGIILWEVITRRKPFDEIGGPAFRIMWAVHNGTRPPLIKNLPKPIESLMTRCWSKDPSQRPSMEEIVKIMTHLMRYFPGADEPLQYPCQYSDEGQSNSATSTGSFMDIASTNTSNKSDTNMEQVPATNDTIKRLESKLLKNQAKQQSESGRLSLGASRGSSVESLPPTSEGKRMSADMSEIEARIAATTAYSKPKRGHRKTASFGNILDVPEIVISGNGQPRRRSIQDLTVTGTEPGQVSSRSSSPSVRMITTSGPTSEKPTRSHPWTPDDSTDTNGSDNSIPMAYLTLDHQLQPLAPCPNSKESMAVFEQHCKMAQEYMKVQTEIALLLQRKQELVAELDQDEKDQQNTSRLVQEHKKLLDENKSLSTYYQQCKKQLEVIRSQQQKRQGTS

[7] = target: Calcium/calmodulin-dependent protein kinase type II subunit delta (Homo sapiens) (UniProt Q13557); assay: Selectivity interaction (ActivX KiNativ screen (kinase selectivity in THP-1 cell lysates)) EUB0000639a CAMK2D; format: subcellular; details: lysate
[8] = target: Platelet-derived growth factor receptor alpha (Homo sapiens, UniProt P16234); assay: Selectivity interaction (Kinase panel (Invitrogen)) EUB0000639a PDGFRA; details: at 200 nM
[9] = target: Serine/threonine-protein kinase pim-3 (Homo sapiens) (UniProt Q86V86); assay: Selectivity interaction (KinomeScan (DiscoverX)) EUB0000655a PIM3; details: at 10 µM
[10] = target: Serine/threonine-protein kinase 24 (Homo sapiens) (UniProt Q9Y6E0); assay: Selectivity interaction (KinomeScan (DiscoverX)) EUB0000699a STK24; details: at 10 µM
[11] = target: T4, Serine/threonine-protein kinase BRSK1 (Homo sapiens) (UniProt Q8TDC3); assay: Selectivity interaction (KinomeScan (DiscoverX)) EUB0000092b BRSK1; details: at 10 µM
T4 sequence (whole entry): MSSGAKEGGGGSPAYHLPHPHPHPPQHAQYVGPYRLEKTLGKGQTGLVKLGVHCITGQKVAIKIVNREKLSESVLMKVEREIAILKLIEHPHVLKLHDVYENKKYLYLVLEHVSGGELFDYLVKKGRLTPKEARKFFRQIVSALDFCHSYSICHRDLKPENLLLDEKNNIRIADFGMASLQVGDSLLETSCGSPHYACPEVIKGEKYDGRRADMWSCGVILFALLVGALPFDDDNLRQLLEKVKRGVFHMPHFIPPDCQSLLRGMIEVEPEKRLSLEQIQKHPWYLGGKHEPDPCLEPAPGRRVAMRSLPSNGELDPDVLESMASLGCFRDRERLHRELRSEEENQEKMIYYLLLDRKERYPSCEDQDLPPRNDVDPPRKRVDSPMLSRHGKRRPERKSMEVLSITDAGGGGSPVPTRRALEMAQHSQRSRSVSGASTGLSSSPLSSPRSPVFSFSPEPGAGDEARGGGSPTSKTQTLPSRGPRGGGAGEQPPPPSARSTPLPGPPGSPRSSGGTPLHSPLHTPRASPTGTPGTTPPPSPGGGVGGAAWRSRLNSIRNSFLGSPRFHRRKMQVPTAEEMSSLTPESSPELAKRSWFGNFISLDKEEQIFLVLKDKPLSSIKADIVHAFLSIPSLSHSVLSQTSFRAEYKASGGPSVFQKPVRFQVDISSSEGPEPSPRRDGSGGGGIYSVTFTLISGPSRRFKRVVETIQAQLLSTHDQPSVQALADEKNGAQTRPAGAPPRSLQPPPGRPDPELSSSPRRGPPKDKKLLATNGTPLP

[12] = target: Serine/threonine-protein kinase pim-3 (Homo sapiens) (UniProt Q86V86); assay: Selectivity interaction (Ambit KINOMEscan and KiNATiv profiling in Jurkat cells) EUB0000090b PIM3; format: cell-based; details: at 1 µM

Chain of Calcium/calmodulin-dependent protein kinase type II subunit delta (Homo sapiens) (Q13557 whole entry): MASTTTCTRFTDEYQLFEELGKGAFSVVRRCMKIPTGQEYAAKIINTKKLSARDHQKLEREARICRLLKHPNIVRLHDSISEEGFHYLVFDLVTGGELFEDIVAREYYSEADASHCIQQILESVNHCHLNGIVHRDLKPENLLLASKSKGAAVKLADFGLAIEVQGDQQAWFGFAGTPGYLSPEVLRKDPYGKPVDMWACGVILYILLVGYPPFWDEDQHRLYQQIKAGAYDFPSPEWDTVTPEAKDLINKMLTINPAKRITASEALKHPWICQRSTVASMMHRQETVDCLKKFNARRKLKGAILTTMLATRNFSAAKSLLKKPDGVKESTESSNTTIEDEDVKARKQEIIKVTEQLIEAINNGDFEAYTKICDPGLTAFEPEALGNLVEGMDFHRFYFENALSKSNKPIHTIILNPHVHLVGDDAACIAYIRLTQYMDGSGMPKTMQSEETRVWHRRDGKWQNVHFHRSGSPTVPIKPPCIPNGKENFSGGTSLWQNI
Chain of Tyrosine-protein kinase Fyn (Homo sapiens) (P06241 2-537 limits assumed): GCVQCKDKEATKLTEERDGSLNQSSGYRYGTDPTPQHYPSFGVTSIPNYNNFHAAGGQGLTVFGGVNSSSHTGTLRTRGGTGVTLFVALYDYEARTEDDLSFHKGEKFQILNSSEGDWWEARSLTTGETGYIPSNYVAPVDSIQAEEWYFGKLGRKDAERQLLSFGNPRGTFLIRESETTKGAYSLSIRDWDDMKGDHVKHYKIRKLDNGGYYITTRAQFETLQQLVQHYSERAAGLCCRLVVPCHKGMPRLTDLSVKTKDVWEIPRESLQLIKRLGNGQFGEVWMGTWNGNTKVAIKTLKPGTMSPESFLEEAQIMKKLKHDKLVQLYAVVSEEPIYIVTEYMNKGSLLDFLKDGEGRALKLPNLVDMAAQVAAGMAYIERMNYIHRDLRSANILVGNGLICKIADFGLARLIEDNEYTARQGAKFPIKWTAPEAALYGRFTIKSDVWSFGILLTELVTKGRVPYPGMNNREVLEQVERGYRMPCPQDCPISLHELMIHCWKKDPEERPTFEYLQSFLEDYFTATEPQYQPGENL
Chain of Serine/threonine-protein kinase 24 (Homo sapiens) (Q9Y6E0 whole entry, looked up): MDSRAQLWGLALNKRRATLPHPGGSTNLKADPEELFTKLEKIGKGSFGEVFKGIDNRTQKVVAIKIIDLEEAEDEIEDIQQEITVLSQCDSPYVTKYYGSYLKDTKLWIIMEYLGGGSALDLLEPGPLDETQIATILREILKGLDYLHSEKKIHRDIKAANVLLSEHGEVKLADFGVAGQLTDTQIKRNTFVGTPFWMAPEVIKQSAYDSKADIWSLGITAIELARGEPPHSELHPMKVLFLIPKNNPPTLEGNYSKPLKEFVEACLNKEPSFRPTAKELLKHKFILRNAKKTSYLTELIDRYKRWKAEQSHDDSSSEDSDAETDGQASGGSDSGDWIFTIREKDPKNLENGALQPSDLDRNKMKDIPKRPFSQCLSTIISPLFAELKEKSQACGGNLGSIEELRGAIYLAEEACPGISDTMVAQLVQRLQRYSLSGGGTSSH
Chain of Ephrin type-A receptor 2 (Homo sapiens) (P29317 whole entry): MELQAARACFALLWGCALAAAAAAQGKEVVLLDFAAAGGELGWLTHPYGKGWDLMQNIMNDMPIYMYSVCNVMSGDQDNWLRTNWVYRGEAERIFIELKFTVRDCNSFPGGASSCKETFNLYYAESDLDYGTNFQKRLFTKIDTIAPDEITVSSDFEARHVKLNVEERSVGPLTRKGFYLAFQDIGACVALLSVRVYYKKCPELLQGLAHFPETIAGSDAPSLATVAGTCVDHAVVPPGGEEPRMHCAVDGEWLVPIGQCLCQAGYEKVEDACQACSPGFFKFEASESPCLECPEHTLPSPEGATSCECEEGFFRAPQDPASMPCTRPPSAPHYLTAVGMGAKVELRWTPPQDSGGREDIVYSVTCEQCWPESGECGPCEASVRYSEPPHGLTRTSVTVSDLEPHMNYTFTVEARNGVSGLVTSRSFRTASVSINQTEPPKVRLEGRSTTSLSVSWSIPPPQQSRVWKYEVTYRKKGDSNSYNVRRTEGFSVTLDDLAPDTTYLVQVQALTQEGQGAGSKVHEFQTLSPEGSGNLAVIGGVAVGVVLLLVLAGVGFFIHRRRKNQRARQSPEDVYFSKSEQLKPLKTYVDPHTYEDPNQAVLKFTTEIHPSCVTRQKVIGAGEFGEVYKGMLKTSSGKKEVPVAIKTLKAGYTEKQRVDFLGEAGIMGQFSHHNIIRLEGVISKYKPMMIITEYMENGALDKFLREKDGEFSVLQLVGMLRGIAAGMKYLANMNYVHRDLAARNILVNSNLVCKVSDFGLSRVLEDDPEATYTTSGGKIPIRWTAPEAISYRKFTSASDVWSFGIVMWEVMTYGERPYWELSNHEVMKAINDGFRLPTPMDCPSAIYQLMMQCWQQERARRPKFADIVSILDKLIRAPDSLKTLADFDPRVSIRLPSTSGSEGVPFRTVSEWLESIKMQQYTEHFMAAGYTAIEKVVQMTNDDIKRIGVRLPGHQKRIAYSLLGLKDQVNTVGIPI
Chain of Glucocorticoid receptor (P04150 whole entry): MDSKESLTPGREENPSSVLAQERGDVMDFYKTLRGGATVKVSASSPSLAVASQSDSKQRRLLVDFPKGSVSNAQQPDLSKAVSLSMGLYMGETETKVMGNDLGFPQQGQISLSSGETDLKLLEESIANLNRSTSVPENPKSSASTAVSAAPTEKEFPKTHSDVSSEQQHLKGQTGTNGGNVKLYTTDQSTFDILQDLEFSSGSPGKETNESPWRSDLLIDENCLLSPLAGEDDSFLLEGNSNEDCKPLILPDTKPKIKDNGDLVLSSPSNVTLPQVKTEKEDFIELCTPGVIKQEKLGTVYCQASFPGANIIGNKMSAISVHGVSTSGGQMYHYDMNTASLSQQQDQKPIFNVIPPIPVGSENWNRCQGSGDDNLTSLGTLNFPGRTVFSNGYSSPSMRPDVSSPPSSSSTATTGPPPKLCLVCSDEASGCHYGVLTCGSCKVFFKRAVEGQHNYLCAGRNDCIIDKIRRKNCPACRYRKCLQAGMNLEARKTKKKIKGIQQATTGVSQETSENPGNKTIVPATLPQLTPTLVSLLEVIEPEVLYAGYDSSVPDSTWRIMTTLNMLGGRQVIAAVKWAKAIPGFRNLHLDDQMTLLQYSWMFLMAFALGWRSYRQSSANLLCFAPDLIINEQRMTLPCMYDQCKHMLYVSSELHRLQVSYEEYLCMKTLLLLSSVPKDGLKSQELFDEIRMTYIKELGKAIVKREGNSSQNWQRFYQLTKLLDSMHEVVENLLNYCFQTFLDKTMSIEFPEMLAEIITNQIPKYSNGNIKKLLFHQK
Chain of Platelet-derived growth factor receptor alpha (P16234 whole entry): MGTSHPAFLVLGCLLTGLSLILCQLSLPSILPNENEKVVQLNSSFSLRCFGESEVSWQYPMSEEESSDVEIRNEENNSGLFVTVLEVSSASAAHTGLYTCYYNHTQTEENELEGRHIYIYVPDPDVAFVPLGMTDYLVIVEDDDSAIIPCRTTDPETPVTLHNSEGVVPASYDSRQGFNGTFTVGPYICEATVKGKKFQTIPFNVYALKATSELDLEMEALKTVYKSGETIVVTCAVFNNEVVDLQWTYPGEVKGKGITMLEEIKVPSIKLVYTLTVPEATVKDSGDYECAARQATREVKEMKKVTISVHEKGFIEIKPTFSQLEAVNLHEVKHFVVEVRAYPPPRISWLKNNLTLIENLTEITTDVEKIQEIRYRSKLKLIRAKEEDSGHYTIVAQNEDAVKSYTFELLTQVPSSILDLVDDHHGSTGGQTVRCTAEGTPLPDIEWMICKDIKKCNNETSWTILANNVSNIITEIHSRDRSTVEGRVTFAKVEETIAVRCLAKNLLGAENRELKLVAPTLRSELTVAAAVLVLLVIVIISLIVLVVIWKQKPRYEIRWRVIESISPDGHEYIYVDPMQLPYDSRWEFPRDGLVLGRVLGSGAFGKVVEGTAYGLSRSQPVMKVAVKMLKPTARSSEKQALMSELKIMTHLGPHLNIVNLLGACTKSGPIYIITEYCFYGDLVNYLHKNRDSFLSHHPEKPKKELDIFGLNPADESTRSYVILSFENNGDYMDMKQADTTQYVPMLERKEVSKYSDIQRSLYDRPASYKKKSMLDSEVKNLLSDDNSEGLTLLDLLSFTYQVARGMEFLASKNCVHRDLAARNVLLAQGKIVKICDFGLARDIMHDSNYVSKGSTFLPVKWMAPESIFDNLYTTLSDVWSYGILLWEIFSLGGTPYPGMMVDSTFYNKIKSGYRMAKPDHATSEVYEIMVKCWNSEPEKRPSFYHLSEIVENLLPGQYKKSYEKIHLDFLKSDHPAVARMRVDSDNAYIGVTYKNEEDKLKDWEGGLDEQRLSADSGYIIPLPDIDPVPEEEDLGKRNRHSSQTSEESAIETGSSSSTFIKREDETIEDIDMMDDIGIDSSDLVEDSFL

Q: `COc1cc(Nc2nc(C)cc(-c3cnn4nc(OC)ccc34)n2)cc(C(F)(F)F)c1` was tested. Which % of control [1] did it give?
A: The % of control was 87%.

Q: Which IC50 [2] does the source give for `CCC(=O)N1CC[C@H](Nc2ncnc3c2CN(c2cnc(OC)c(C(F)(F)F)c2)CC3)C1` [LENIOLISIB] here?
A: The IC50 was greater than 30 µM.

Q: Which results are given for `C=CC(=O)Nc1cccc(C(=O)Nc2ccc(Nc3cc(-c4[nH]c(SC)nc4C)ccn3)cc2)c1`?
A: % of control ([3]; at 1 µM): 101%; % of control ([3]; at 5 µM): 100%; % of control ([4]; at 1 µM): 103%; % of control ([4]; at 5 µM): 126%

Q: `CN1Cc2nccc(-c3cn(C)nc3-c3ccc(F)cc3)c2C1=O` was tested. Which % of inhibition [5] did it give?
A: The % of inhibition was 7%.

Q: With `O[C@H]1CC[C@H](Nc2ncc3nc(Nc4c(F)cc(F)cc4F)n([C@H]4CCOC4)c3n2)CC1` as the molecule, how does the % of control [6] read?
A: Its % of control is 99%.

Q: What does the source list for `CC[C@@H]1[C@H](F)C(=O)N[C@@H]1COc1nccc2cc(C(N)=O)c(OC)cc12` [ZIMLOVISERTIB]?
A: % of inhibition ([7]; at 0.01 µM): 14.2%; % of inhibition ([7]; at 0.04 µM): 9.6%; % of inhibition ([7]; at 0.2 µM): 16.3%; % of inhibition ([7]; at 1 µM): 36.4%; % of inhibition ([7]; at 5 µM): 61.2%; % of inhibition [8]: 1.87%

Q: For `CN(C)CCOc1ccc(-c2nc(-c3ccncc3)c(-c3ccc4c(c3)CC/C4=N\O)[nH]2)cc1`, which % of control [9] is on record?
A: The % of control was 88%.

Q: How did the % of control [10] turn out when `CCN(CC)CCCCNc1ncc2cc(-c3cc(OC)cc(OC)c3)c(NC(=O)NC(C)(C)C)nc2n1` was run?
A: The % of control was 7%.

Q: With `CCC(=O)N1CCN(c2ccc(-n3c(=O)ccc4cnc5ccc(-c6cnc7ccccc7c6)cc5c43)cc2C(F)(F)F)CC1` as the molecule, how does the % of control [11] read?
A: Its % of control is 78%.

Q: With `CN(C)C/C=C/C(=O)Nc1ccc(C(=O)N2CCCC(Nc3ncc(Cl)c(-c4c[nH]c5ccccc45)n3)C2)cc1` (stereo not drawn) as the molecule, how does the % of control [12] read?
A: Its % of control is 99%.
